The text below walks through data of PubChem BioAssay (NCI).

Structures are written as SMILES.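 Five compound concentrations were applied to cells in 96-well plates for 48 hours; endpoints were derived by simple linear interpolation of the resulting dose-response curve. At the GI50, growth is halved. TGI is the concentration that stops growth completely.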

Some test systems named below: 786-0 renal; HCT-15 colon; HOP-92 NSCLC; M14 melanoma; MCF7 breast; MDA-MB-435; MOLT-4 leukemia; PC-3 prostate; SK-MEL-2 melanoma; T-47D breast.
What all share (assay): NCI anticancer screen, dose series, 48 h

For the compound `Nc1ccccc1C#C/C=C\C#Cc1ccccc1C(F)(F)F`, the GI50 with 786-0 renal was 0.545 µM; in the test on HCT-15 colon, 1.13 µM; in the test with HOP-92 NSCLC it was 21.5 µM; with M14 melanoma it was 0.422 µM; with MCF7 breast, 1.56 µM; in the test with MDA-MB-435, 0.355 µM. The GI50 is above 61.3 µM in the test on MOLT-4 leukemia, 4.41 µM with PC-3 prostate, 21.8 µM with SK-MEL-2 melanoma and 19.4 µM in the test on T-47D breast. Moreover, the TGI was 16.7 µM in the test on 786-0 renal; 12.5 µM with HCT-15 colon; 48 µM with HOP-92 NSCLC; 9.74 µM with M14 melanoma; above 47.5 µM in the test on MCF7 breast; 1.3 µM in the test with MDA-MB-435. Moreover, the TGI in the test with MOLT-4 leukemia was above 100 µM; in the test with PC-3 prostate, 45.1 µM; in the test on SK-MEL-2 melanoma, above 100 µM; in the test on T-47D breast it was 61.2 µM.

`O=C1CCC(Cc2ccc(Cl)cc2Cl)C(=O)N1` (stereo not given): the TGI in the test on 786-0 renal, in the test with HCT-15 colon, in the test on HOP-92 NSCLC, in the test on M14 melanoma, with MCF7 breast and in the test on MDA-MB-435 was above 100 µM in each case. The TGI in the test on MOLT-4 leukemia, in the test with PC-3 prostate, in the test with SK-MEL-2 melanoma and with T-47D breast was above 100 µM in each case.

As for `CC1=C([Se]CC(OC(=O)CC[Se]c2ccccc2)C(=O)NCCCCCC(=O)OCc2ccccc2)C(=O)c2ccccc2C1=O` (stereo not given), the GI50 in the test with 786-0 renal was 3.18 µM; with HCT-15 colon, 3.85 µM; in the test on HOP-92 NSCLC it was 2.46 µM; in the test on M14 melanoma, 2.04 µM; with MCF7 breast, 2.51 µM; with MDA-MB-435 it was 2.45 µM. The GI50 in the test with MOLT-4 leukemia is 3.61 µM; in the test with PC-3 prostate it was 2.26 µM; in the test with SK-MEL-2 melanoma, 3.32 µM; with T-47D breast, 2.2 µM. Moreover, the TGI came to 8.36 µM with 786-0 renal; 21.6 µM in the test with HCT-15 colon; 5.91 µM in the test on HOP-92 NSCLC; 4.8 µM with M14 melanoma; 12.7 µM in the test with MCF7 breast; 7.45 µM in the test with MDA-MB-435. Further, the TGI in the test on MOLT-4 leukemia came to 31.2 µM; with PC-3 prostate it was 12.4 µM; with SK-MEL-2 melanoma, 9.96 µM; with T-47D breast, 8.21 µM.

On to `Oc1ccc(Cc2ccc(O)c3ncccc23)c2cccnc12`, for which the GI50 is 0.193 µM in the test with 786-0 renal; 0.0712 µM with HCT-15 colon; 0.0114 µM in the test with HOP-92 NSCLC; 0.0423 µM with M14 melanoma; 0.0524 µM in the test with MCF7 breast; 0.0383 µM with MDA-MB-435. The GI50 in the test with MOLT-4 leukemia is 0.231 µM; in the test with PC-3 prostate, 0.0583 µM; in the test on SK-MEL-2 melanoma, 0.228 µM; in the test on T-47D breast, 0.15 µM. In addition, the TGI in the test with 786-0 renal was above 100 µM; in the test with HCT-15 colon, above 100 µM; in the test with HOP-92 NSCLC, 0.0513 µM; in the test on M14 melanoma it was above 100 µM; with MCF7 breast it was above 100 µM; in the test on MDA-MB-435, above 100 µM. The TGI in the test on MOLT-4 leukemia is above 100 µM; with PC-3 prostate, 53.2 µM; in the test on SK-MEL-2 melanoma, 0.681 µM; with T-47D breast, 0.704 µM.

In the case of `CC(=O)OC[C@H]1O[C@@H](n2ccc(=O)[nH]c2=O)[C@H](OC(C)=O)[C@@H]1OC(C)=O`, the GI50 in the test with 786-0 renal, in the test on HCT-15 colon, in the test with HOP-92 NSCLC, with M14 melanoma, with MCF7 breast and in the test with MDA-MB-435 was above 100 µM in each case. Further, the GI50 with MOLT-4 leukemia, in the test with PC-3 prostate, in the test on SK-MEL-2 melanoma and in the test with T-47D breast was above 100 µM in each case. For the same compound, the TGI with 786-0 renal, with HCT-15 colon, with HOP-92 NSCLC, with M14 melanoma, in the test with MCF7 breast and in the test on MDA-MB-435 was above 100 µM in each case. The TGI in the test on MOLT-4 leukemia, with PC-3 prostate, in the test on SK-MEL-2 melanoma and in the test with T-47D breast was above 100 µM throughout.

With `COc1cc2oc(=O)ccc2cc1C1OC(=O)C2OC21C` (stereo not given), the TGI in the test on 786-0 renal, in the test on HCT-15 colon, with HOP-92 NSCLC, with M14 melanoma, in the test with MCF7 breast and in the test on MDA-MB-435 was above 100 µM throughout. Also, the TGI in the test on MOLT-4 leukemia, in the test on PC-3 prostate, in the test on SK-MEL-2 melanoma and in the test with T-47D breast was above 100 µM in each case.

Turning to `COc1ccccc1-[n+]1cc(-c2ccc(-c3ccccc3)cc2)n2c1CCCCC2`, the GI50 with 786-0 renal was 1.31 µM; with HCT-15 colon, 4.35 µM; in the test with HOP-92 NSCLC, 0.184 µM; in the test with M14 melanoma, 0.443 µM; in the test on MCF7 breast, 0.229 µM; in the test on MDA-MB-435, 0.27 µM. Further, the GI50 in the test with MOLT-4 leukemia is 0.292 µM; with PC-3 prostate it was 0.228 µM; in the test with SK-MEL-2 melanoma, 0.237 µM; in the test on T-47D breast, 0.0774 µM. The TGI in the test with 786-0 renal was 11.5 µM; with HCT-15 colon it was 20.2 µM; in the test with HOP-92 NSCLC, 1.97 µM; in the test with M14 melanoma, 10.1 µM; in the test with MCF7 breast it was 11.2 µM; in the test on MDA-MB-435, 3.6 µM. Besides, the TGI with MOLT-4 leukemia amounted to 3.97 µM; in the test on PC-3 prostate, 8.95 µM; in the test on SK-MEL-2 melanoma it was 2.22 µM; with T-47D breast it was 11.9 µM.

As to `Cc1cn(C2CC(F)C(CO)O2)c(=O)[nH]c1=O` (stereo not given), the GI50 with 786-0 renal, in the test on HCT-15 colon, in the test with HOP-92 NSCLC, in the test with M14 melanoma, with MCF7 breast and in the test on MDA-MB-435 was above 100 µM each time. Further, the GI50 in the test with MOLT-4 leukemia, in the test on PC-3 prostate, in the test with SK-MEL-2 melanoma and in the test with T-47D breast was above 100 µM throughout. The TGI in the test with 786-0 renal, in the test with HCT-15 colon, in the test with HOP-92 NSCLC, with M14 melanoma, in the test with MCF7 breast and with MDA-MB-435 was above 100 µM throughout. The TGI in the test on MOLT-4 leukemia, in the test with PC-3 prostate, in the test on SK-MEL-2 melanoma and in the test with T-47D breast was above 100 µM each time.
